Columns and labels:
NS3 [1] = target: T1, NS3 (Hepatitis C virus, UniProt A3EZJ3); experiment: Inhibitory activity evaluated in the HCV NS3 protease activity assay; design: species or system Hepacivirus hominis
NS3 [2] = target: T1, NS3; experiment: Inhibitory activity evaluated in the HCV NS3 protease assay; design: species or system Hepacivirus hominis

T1 sequence (A3EZJ3 whole entry): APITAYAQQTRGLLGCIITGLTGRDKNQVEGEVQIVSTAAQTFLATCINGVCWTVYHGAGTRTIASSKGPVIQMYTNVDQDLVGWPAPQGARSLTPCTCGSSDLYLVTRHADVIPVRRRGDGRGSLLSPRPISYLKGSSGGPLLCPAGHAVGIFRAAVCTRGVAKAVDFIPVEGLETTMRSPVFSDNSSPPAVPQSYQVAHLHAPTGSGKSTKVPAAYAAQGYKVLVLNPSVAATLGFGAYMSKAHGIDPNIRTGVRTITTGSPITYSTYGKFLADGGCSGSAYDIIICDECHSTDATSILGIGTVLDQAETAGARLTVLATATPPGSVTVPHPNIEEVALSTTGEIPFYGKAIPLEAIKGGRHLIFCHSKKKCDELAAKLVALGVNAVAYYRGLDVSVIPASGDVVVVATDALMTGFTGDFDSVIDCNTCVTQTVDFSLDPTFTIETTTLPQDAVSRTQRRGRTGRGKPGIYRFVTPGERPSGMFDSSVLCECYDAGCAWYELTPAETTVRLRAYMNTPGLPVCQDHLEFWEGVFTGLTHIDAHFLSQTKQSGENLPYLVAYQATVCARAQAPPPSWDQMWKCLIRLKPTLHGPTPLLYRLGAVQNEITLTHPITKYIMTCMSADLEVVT

SMILES: O=C1OC[C@H]2O[C@@H](Oc3cc(O)c4c(c3)OC(c3ccccc3)CC4=O)[C@H](O)[C@@H](O)[C@@H]2OC(=O)c2cc(O)c(O)c(O)c2-c2c1cc(O)c(O)c2O (some centres not stated)
- IC50 (NS3 [1]): 0.3 µM

SMILES: O=C1OC[C@H]2O[C@@H](Oc3cc(O)c(C(=O)CCc4ccccc4)c(O)c3)[C@H](O)[C@@H](O)[C@@H]2OC(=O)c2cc(O)c(O)c(O)c2-c2c1cc(O)c(O)c2O [THONNINGIANIN B]
- IC50 (NS3 [2]): 0.8 µM
